# Experimental data from patent publication US8076343B2, “Benzimidazoles useful as inhibitors of protein kinases” (Vertex Pharmaceuticals Incorporated, priority 2005, dated 2011).
smiles,measurement,value
Nc1nc2ccccc2n1-c1cc(NC2CCCNC2)ncn1 (stereo not shown) [Compound 3],melting point,87 to 88 °C
